Experimental data as given in patent publication US8476309B2, “Benzofuran cannabinoid compounds and related methods of use” (The University of Tennessee Research Foundation, priority 2009, dated 2013).

test system: glioblastoma brain cancer cell line LN-229; assay: Cytotoxicity assay (CCK8 viability); format: cell-based; conditions: Homo sapiens, LN-229, 24 h, read-out: EC50 LN-229, 24 hrs, 1% FBS
Protocol: Cytoxocity assay: Cells are seeded on a 96 well polystyrene plate in full serum media at a density of 75,000 cells per milliliter, 100 μL per well. Plates are incubated at 37° C. and 5% CO2 for 24 hours to allow cell attachment. Drug solutions are prepared in DMSO at 100× concentration and mixed 1:100 in 1% FBS media to yield the desired concentration. Drug-media mixtures are vortexed immediately prior to administration to cells. […] 10 μL of Cell Counting Kit 8 (CCK8, Dojindo# CK04-11) is added to each well to colormetrically assess viability. After 2-4 hours of incubation with the CCK8 dye, absorbance is read at 450 nm by a BioTek Synergy 2 plate reader.
The cytotoxicity of selected compounds against the glioblastoma brain cancer cell line LN-229 is depicted in Table 2.

SMILES | EC50
CCCCCc1cc(O)c2c(-c3cccc(C)c3)coc2c1 [Compound 51, 6-Pentyl-3-m-tolylbenzofuran-4-ol] | 16.4 µM
CCCCCc1cc(O)c2c(-c3cc(OC)cc(OC)c3)coc2c1 [Compound 55, 3-(3,5-Dimethoxyphenyl)-6-pentylbenzofuran-4-ol] | 10.3 µM
CCCCCc1cc(O)c2c(-c3cc(Cl)cc(Cl)c3)coc2c1 [Compound 58, 3-(3,5-Dichlorophenyl)-6-pentylbenzofuran-4-ol] | 13.6 µM

same assay, conditions: Homo sapiens; LN-229 cells, 24 hrs, 1% FBS media, CCK8 readout; read-out: EC50 LN-229, 24 hrs, 1% FBS

SMILES | EC50
CCCCCc1cc(O)c2c(-c3cccs3)coc2c1 [Compound 49, 6-Pentyl-3-thiophen-2-yl-benzofuran-4-ol] | 68.5 µM
CCCCCc1cc(O)c2cc(-c3cc(OC)cc(OC)c3)oc2c1 [Compound 56, 2-(3,5-Dimethoxyphenyl)-6-pentylbenzofuran-4-ol] | 10.3 µM
CCCCCCC(C)(C)c1cc(O)c2c(-c3ccccc3)coc2c1 [Compound 63, 6-(2-Methyloctan-2-yl)-3-phenylbenzofuran-4-ol] | 10.3 µM
CCCCCc1cc(O)c2cc(-c3cc(Cl)cc(Cl)c3)oc2c1 [Compound 59, 2-(3,5-Dichlorophenyl)-6-pentylbenzofuran-4-ol] | 6.12 µM
CCCCCc1cc(O)c2cc(-c3cccs3)oc2c1 [Compound 50, 6-Pentyl-2-thiophen-2-yl-benzofuran-4-ol] | 10.1 µM
CCCCCCC(C)(C)c1cc(O)c2c(-c3cc(Cl)cc(Cl)c3)coc2c1 [Compound 62, 3-(3,5-Dichlorophenyl)-6-(2-methyloctan-2-yl)benzofuran-4-ol] | 11.4 µM
CCCCCc1cc(O)c2c(-c3ccccc3)coc2c1 [Compound 52, 6-Pentyl-3-phenylbenzofuran-4-ol] | 10.7 µM
CC(C)(c1cccc(F)c1)c1cc(O)c2c(-c3ccccc3)coc2c1 [Compound 75, 6-(2-(3-Fluorophenyl)propan-2-yl)-3-phenylbenzofuran-4-ol] | 6.99 µM
